{
  "source": "paper PMC9088798",
  "about": "“An Approach to Derive Functional Peptide Inhibitors of Transcription Factor Activity” (JACS Au, 2022)",
  "system": "cJun bZIP / TRE sites in TRE-mDHFR gene",
  "experiment": "TBS liquid culture growth competition HingeW vs A-FosW",
  "format": "cell-based, human cJun, expressed in E. coli",
  "details": "equal numbers of cells with A-FosW or HingeW, selective M9 media, after three passages, DNA sequencing",
  "description": "During the TBS library screening process, E. coli were transformed with the pooled DNA plasmid library such that each cell expressed a given member. Cells were plated onto M9 selective media and incubated until colonies expressing TBS active library members had formed. These colonies were pooled, and repeated liquid culture passages were undertaken under selective conditions to compete for library members against each other, enriching for the most TBS active sequences. At each stage of the assay, DNA sequencing was used to monitor the presence of TBS active sequences in the culture and inform on which residues were being selected at each position until one discrete DNA sequence was detected in the culture, referred to as HingeW (Figure 4). The residues selected in the winning HingeW peptide were universally found to be either acidic (D/E) or hydrophobic (V). Six of nine residues selected deviated from the parental A-FosW sequence with both V (E-to-V at e4 and c4, Q-to-V at f4) and E (L-to-E at a4, Q-to-E at e5, A-to-E at f5) newly selected in three positions. […]\nincreased to the optimum 4 µM in subsequent passages. […] This allows the occurrence of library members to be monitored as winner sequences are selected for. […]",
  "data": [
    {"sequence": "LEQRAEELARENEELEKEAEELEQELDELQAEIEQLEERNYALRKEIEDLQKQLEKL [A-FosW, N-terminal AS and C-terminal GAP caps, 6xHis-tagged]", "values": [
      {"measurement": "outcome of direct competition in liquid culture", "value": "outcompeted"}
    ]}
  ]
}
